Data: patent publication US6355799B1, “Substituted benzene compounds, process for their preparation, and herbicidal and defoliant compositions containing them” (ISK Americas Incorporated, priority 1997, dated 2002)

Columns and labels:
Assay type in all cases: in vivo
[1] = system: johnsongrass (Sorghum halepense, SORHA); test: Post-emerge test, greenhouse herbicide activity screening; settings: post-emerge, 14 days after application, rating scale 0-100
Summary of the method: (§1)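 Fourteen days after spraying, crop and weed injury was graded visually from 0, no effect, to 100, every plant dead. Test substances were dissolved in acetone and applied at 15–1000 g ai/ha with a flat-fan nozzle. Application was either pre-emergence, one day after sowing, or post-emergence at the 2–3 leaf stage.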

[2] = system: lambsquarters (Chenopodium album, CHEAL); test: as above; settings: post-emerge, 14 days after application, rating scale 0-100
Summary of the method: as §1

[3] = system: large crabgrass (Digitaria sanguinalis, DIGSA); test: as above; settings: post-emerge, 14 days after application, rating scale 0-100
Summary of the method: as §1

[4] = system: common ragweed (Ambrosia artemisizfolia L., AMBEL); test: as above; settings: post-emerge, 14 days after application, rating scale 0-100
Summary of the method: as §1

[5] = system: redroot pigweed (Amaranthus retroflexus, AMARE); test: as above; settings: post-emerge, 14 days after application
Summary of the method: as §1

[6] = system: green foxtail (Setaria viridis, SETVI); test: as above; settings: post-emerge, 14 days after application, rating scale 0-100
Summary of the method: as §1

[7] = system: velvetleaf (Abutilon theophrasti, ABUTH); test: as above; settings: post-emerge, 14 days after application, rating scale 0-100
Summary of the method: as §1

[8] = system: barnyardgrass (Echinochloa crus-galli, ECHCG); test: as above; settings: post-emerge, 14 days after application, rating scale 0-100
Summary of the method: as §1

[9] = system: ivyleaf morningglory (Ipomoea hederacea, IPOHE); test: as above; settings: post-emerge, 14 days after application, rating scale 0-100
Summary of the method: as §1

[10] = system: sicklepod (Cassia obtusifolia, CASOB); test: as above; settings: post-emerge, 14 days after application, rating scale 0-100
Summary of the method: as §1

[11] = system: johnsongrass (Sorghum halepense, SORHA); test: Pre-emerge test, greenhouse herbicide activity screening; settings: phytotoxicity rating 0-100, 14 days after application
Summary of the method: (§2)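 Compounds in acetone were track-sprayed at 15–1000 g ai/ha: pre-emergence onto soil sown the previous day, then top-watered to incorporate and later bottom-watered; post-emergence onto 2–3 leaf plants with 0.25% v/v surfactant, bottom-watered only. Ratings on a 0–100 phytotoxicity scale were taken at day 14.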

[12] = system: lambsquarters (Chenopodium album, CHEAL); test: as above; settings: phytotoxicity rating 0-100, 14 days after application
Summary of the method: as §2

[13] = system: large crabgrass (Digitaria sanguinalis, DIGSA); test: as above; settings: phytotoxicity rating 0-100, 14 days after application
Summary of the method: as §2

[14] = system: common ragweed (Ambrosia artemisizfolia L., AMBEL); test: as above; settings: phytotoxicity rating 0-100, 14 days after application
Summary of the method: as §2

[15] = system: green foxtail (Setaria viridis, SETVI); test: as above; settings: phytotoxicity rating 0-100, 14 days after application
Summary of the method: as §2

[16] = system: velvetleaf (Abutilon theophrasti, ABUTH); test: as above; settings: phytotoxicity rating 0-100, 14 days after application
Summary of the method: as §2

[17] = system: barnyardgrass (Echinochloa crus-galli, ECHCG); test: as above; settings: phytotoxicity rating 0-100, 14 days after application
Summary of the method: as §2

[18] = system: ivyleaf morningglory (Ipomoea hederacea, IPOHE); test: as above; settings: phytotoxicity rating 0-100, 14 days after application
Summary of the method: as §2

[19] = system: sicklepod (Cassia obtusifolia, CASOB); test: as above; settings: phytotoxicity rating 0-100, 14 days after application
Summary of the method: as §2

[20] = system: field corn (Zea mays L., var. Dekalb 535, CORN); test: Pre-emerge test, crop safety; settings: crop damage rating 0-100, 14 days after application
Summary of the method: (§3)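 Visual ratings on a 0-100 scale (0 no damage, 100 all plants dead) were taken at 14 days after treatment. Rates of 15-1000 g ai/ha in acetone, 187 l/ha, were sprayed onto soil one day after planting (pre-emerge) or onto 2-3 leaf plants with 0.25% v/v surfactant (post-emerge).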

[21] = system: upland rice (Oryza sp., var. Tebonnet, RICE); test: Pre-emerge test, crop safety; settings: crop damage rating 0-100, 14 days after application
Summary of the method: as §3

[22] = system: redroot pigweed (Amaranthus retroflexus, AMARE); test: Pre-emerge test, greenhouse herbicide activity screening; settings: phytotoxicity rating 0-100, 14 days after application
Summary of the method: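 Plants grown in 10 cm pots of sandy loam mix received acetone-dissolved compounds through a moving flat-fan nozzle. Doses ranged from 15 to 1000 g ai/ha. Pre-emerge pots were seeded one day earlier, post-emerge pots 8–21 days earlier. Fourteen days on, each pot was graded 0–100 for damage.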

[23] = system: field corn (Zea mays L., var. Dekalb 535, CORN); test: Post-emerge test, crop safety; settings: post-emerge, 14 days after application, rating scale 0-100
Summary of the method: (§4)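 Rating: 0–100 visual injury, 14 DAA. Application: acetone, 187 l/ha, 15–1000 g ai/ha, flat-fan track sprayer with nozzle 40–45 cm above soil or canopy. Post-emerge runs used 0.25% v/v surfactant on 2–3 leaf plants.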

[24] = system: upland rice (Oryza sp., var. Tebonnet, RICE); test: Post-emerge test, crop safety; settings: post-emerge, 14 days after application, rating scale 0-100
Summary of the method: as §4

Cn1c(C(F)(F)F)cc(=O)n(-c2ccc(C(N)=S)cc2NC(=O)c2ccc3ccccc3c2)c1=O [2-205]
80: Pre-emerge Herbicidal Activity AMBEL ([14]; 63 g ai/ha) | Pre-emerge Herbicidal Activity ECHCG ([17]; 63 g ai/ha)
10: phytotoxicity rating DIGSA ([3]; 63 g ai/ha) | phytotoxicity rating DIGSA ([3]; 250 g ai/ha) | phytotoxicity rating SETVI ([6]; 63 g ai/ha) | phytotoxicity rating SETVI ([6]; 250 g ai/ha) | phytotoxicity rating CORN (crop damage) ([23]; 63 g ai/ha)
100: phytotoxicity rating AMBEL ([4]; 250 g ai/ha) | phytotoxicity rating ABUTH ([7]; 63 g ai/ha) | phytotoxicity rating ABUTH ([7]; 250 g ai/ha) | phytotoxicity rating IPOHE ([9]; 63 g ai/ha) | phytotoxicity rating CASOB ([10]; 250 g ai/ha) | Pre-emerge Herbicidal Activity CHEAL ([12]; 63 g ai/ha) | Pre-emerge Herbicidal Activity CHEAL ([12]; 250 g ai/ha) | Pre-emerge Herbicidal Activity SETVI ([15]; 250 g ai/ha) | Pre-emerge Herbicidal Activity ABUTH ([16]; 63 g ai/ha) | Pre-emerge Herbicidal Activity ABUTH ([16]; 250 g ai/ha) | Pre-emerge Herbicidal Activity AMARE ([22]; 63 g ai/ha) | Pre-emerge Herbicidal Activity AMARE ([22]; 250 g ai/ha)
0: phytotoxicity rating SORHA ([1]; 63 g ai/ha) | phytotoxicity rating SORHA ([1]; 250 g ai/ha) | phytotoxicity rating ECHCG ([8]; 63 g ai/ha) | phytotoxicity rating ECHCG ([8]; 250 g ai/ha) | Pre-emerge Herbicidal Activity IPOHE ([18]; 63 g ai/ha) | Pre-emerge Herbicidal Activity CASOB ([19]; 63 g ai/ha) | Pre-emerge Herbicidal Activity CORN ([20]; 63 g ai/ha)
30: phytotoxicity rating RICE (crop damage) ([24]; 63 g ai/ha) | phytotoxicity rating RICE (crop damage) ([24]; 250 g ai/ha)
85: Pre-emerge Herbicidal Activity SORHA ([11]; 250 g ai/ha)
50: Pre-emerge Herbicidal Activity CORN ([20]; 250 g ai/ha)
99: Pre-emerge Herbicidal Activity DIGSA ([13]; 250 g ai/ha) | Pre-emerge Herbicidal Activity ECHCG ([17]; 250 g ai/ha)
95: Pre-emerge Herbicidal Activity IPOHE ([18]; 250 g ai/ha)
70: phytotoxicity rating CHEAL ([2]; 63 g ai/ha) | phytotoxicity rating CHEAL ([2]; 250 g ai/ha) | phytotoxicity rating AMBEL ([4]; 63 g ai/ha) | phytotoxicity rating IPOHE ([9]; 250 g ai/ha) | Pre-emerge Herbicidal Activity DIGSA ([13]; 63 g ai/ha) | Pre-emerge Herbicidal Activity SETVI ([15]; 63 g ai/ha) | Pre-emerge Herbicidal Activity RICE ([21]; 250 g ai/ha)
20: Pre-emerge Herbicidal Activity RICE ([21]; 63 g ai/ha) | phytotoxicity rating CORN (crop damage) ([23]; 250 g ai/ha)
40: phytotoxicity rating AMARE ([5]; 250 g ai/ha, rating scale 0-100) | Pre-emerge Herbicidal Activity SORHA ([11]; 63 g ai/ha) | Pre-emerge Herbicidal Activity CASOB ([19]; 250 g ai/ha)
90: phytotoxicity rating AMARE ([5]; 63 g ai/ha, rating scale 0-100 (0 no damage, 100 complete death)) | phytotoxicity rating CASOB ([10]; 63 g ai/ha) | Pre-emerge Herbicidal Activity AMBEL ([14]; 250 g ai/ha)
